Source: patent US9725695B2, “Stem cell defined media for xeno-free and feeder free conditions and uses thereof” (The Regents of the University of California, priority 2010, dated 2017)

How the values were obtained:
[1] = system: wild-type iPS line; experiment: Feeder free 2-variable RCCD (Activin A, TGF-beta-1): percent of pluripotency, FACs dual staining SSEA-4 and Nanog; format: cell-based; conditions: p>0.1
Description: (§1) Aiming to improve the efficacy of the media, stimulating other pathways, besides the FGF-path, were explored. The Nodal/Activin pathway is related to pluripotency/self-renew (XIAO, 2006), than the factors from TGF superfamily. Activin A (Peprotech, Rocky Hill, N.J.; catalog number 120-14E) and TGF-beta-1 (Peprotech, Rocky Hill, N.J.; catalog number 100-21C), were investigated in a 2-variable RCCD (Table 20).
(§2) In these experiments, a wild-type iPS line was used. In the same fashion as the feeder conditions, cells were homogenously inoculated in several plates in each different formulation. The main difference in this step was the readout analyzed. Kinetic growth were not obtained due to the problems related to managing several feeder-free plates. Thus, instead of calculating integral and Px,max, two other readouts were used. The first one was the final cell growth achieved, called here as self-renew and the other one was percent of pluripotency, obtained from FACs analyzes by the dual staining with SSEA-4 and Nanog.

[2] = system: wild-type iPS line; experiment: Feeder free 2-variable RCCD (Activin A, TGF-beta-1): self-renew (final cell growth achieved); format: cell-based; conditions: first feeder-free 2-variable RCCD, R^2 = 90.3%, p < 0.1; for Self-renew regression Coefficient (Linear): linear term of coded variable; for Self-renew regression Coefficient (Quadratic): quadratic term of coded variable
Description: as §1, §2
Analyzing the model, it is clear that TGF-beta-1 and Activin A have similar parameters. Additionally, they got a negative interaction with each other; meaning that, from an optimization point of view, if one is raised the other should be diminished. Taking a look into the surface gives a better clue of the best regions.

[3] = system: H-9 cells; experiment: Kinetic growth of H-9 cells on feeders in PB12/RCCD media formulations (Integral, Px,max, μ) with Statistica effect/regression models; format: cell-based, human; parameters: Effect on Integral / Effect on μ: unit not given here; conditions: for Effect on Integral / Effect on Px, max / Effect on μ: PB12, level −1 to +1 (ranges Table 2), least square method; for Regression coefficient (Linear), Px, max / Regression coefficient (Quadratic), Px, max / Regression coefficient (Linear), Integral: 1st RCCD, codified values; for Regression coefficient (Linear), Px, max / Regression coefficient (Quadratic), Px, max: R^2 = 80.0%; for Regression coefficient (Linear), Integral: R^2 = 86.4%
Description: A Placket-Burman matrix of 12 independent conditions (PB12) was used (Table 1), according to the Design of Experiments (DOE) methodology for the screening of 8 factors (RODRIGUES & IEMMA, 2005). […] Since this first step, the PB12, is a screening step, whenever it was possible the concentration of the factor was set as zero. • Condition 0: represents the central condition of the DOE, being the mean value obtained from averaging the values for levels −1 and +1. In addition to the central condition, the “main” central condition is defined as a state when all factors are set to condition 0.
In total, 14 different conditions were examined: 12 related to the PB12 matrix, 1 related to the “main” central condition that was performed in quadruplicates for the error estimation and a control condition with KSR. The basal media was: a 1:1 mixture 1:1 of DMEM and Ham's F12 (DMEM/F12; Mediatech, Manassas, Va.; catalog number 10-092), 1% NEAA, 110 μM β-mercaptoethanol (BME; Sigma-Aldrich, St. Louis, Mo.; catalog number M7522), 50 μg/mL gentamicin sulfate (Mediatech, Manassas, Va.; catalog number 30-005-CR) and 8 ng/mL of FGF-2 (Peprotech, Rocky Hill, N.J.; catalog number 100-18B). FGF-2 was reconstituted in PBS at 100 ug/mL and was added to the media for a final concentration of 8 ng/mL at the start of the culture. During the culture period, additional FGF-2 (8 ng/mL) was added directly to the media on a daily basis.
Every 24 hours one well from each condition and 4 wells from the main central condition were enzymatic dissociated and counted with the help of an automatic counter (NucleoCounter NC-100), for an unbiased measure of cell growth. In that way, by the end of the 5 days, a kinetic curve was obtained for every single condition (FIG. 1). Readouts like integral of cells (integral; defined as area below the curve), maximum productivity (Px,max; defined as the highest value obtained from dividing cell number by time) or and specific global ( ) growth rate (or speed of cell growth obtained from the formula dX/dt=pX) were calculated in order to perform the statistics comparing all different curves (Table 3).
Through the estimation of the effects from the least square method and the calculation of the errors obtained by the replicates performed on the main central condition (formulation 13), “t” was calculated as the ratio of effect and error.
By comparing the calculated “t” value with “t” values from a Student's “t” distribution table for a bilateral distribution, the p-value was obtained for each parameter in every readout.
Aiming to understand better the contribution of each protein in the formulation of the media, an optimization step was performed using the Three-Variable Rotatable Central Composite Design (RCCD; Rodrigues and lemma, 2005). The concentration range of each supplement was the same as given in Table 2 for the PB12 design, with the same concentration for the level 0, −1, and +1 condition.
The basal media was: a 1:1 mixture 1:1 of DMEM and Ham's F12 (DMEM/F12; Mediatech, Manassas, Va.; catalog number 10-092), 1.5% NEAA, 8.46 mg/L citric acid, 0.89×10^−4 mM sodium selenite, 2 mM glutamine (total of 4.5 mM), BME 110 μM, gentamicin sulfate 50 μg/mL and 8 ng/mL of FGF-2.
As before, kinetics growth of H-9 cells were obtained and readouts like Integral and Px, max were calculated (Table 6).
Through the use of Statistica software (StatSoft, Tulsa, Okla.), a second order mathematical model was generated in order to evaluate the real contribution of each supplement (Table 7).

[4] = system: H-9 cells; experiment: as above; format: cell-based, human; conditions: codified values
[5] = system: H-9s; experiment: H-9s concentration after 3 days in low protein formulation with different BME concentrations; format: cell-based, human; conditions: 20 μM, low protein amount formulation, p<0.01, t-test
Description: FIG. 7: H-9s concentration after 3 days of culture in low protein based formulation with different BME concentrations. Error bars were generated through independent quadruplicates.
Having a meticulous comparison between all RCCDs performed, it was noticed that BME concentration was different due to supplier differences. […] Still, considering that BME is not just an antioxidant but a denaturizing chemical as well, it is expected that this compound would have a greater effect on media formulated with low amount of proteins.
Astonishingly, BME is normally added and recommended in KSR based media and feeder free media like mTeSR1 and StemPro. However, the negative effect of this compound is probably buffered by the huge amount of proteins that these media got, around 10 grams per liter, while the invention provides at least 20 times less. This discovery represents a breakthrough in terms of what are the real needs of an ES cell, drastically changing the media and cell's environment.

[6] = system: H-9s; conditions: extra amount of bicarbonate (2.4 g/L vs 1.2 g/L)
Description: A simple test was performed with KSR formulation, just changing basal media supplier and consequently just changing the amount of buffer.

[7] = RCCD for NEAA, citric acid and glutamine, R^2 = 89.5%
[8] = RCCD for NEAA, citric acid and glutamine, R^2 = 90.7%

Compound: TGF-beta-1: TGF-beta-1 (Peprotech), factor from TGF superfamily
- statistical relevance of model parameters for pluripotency [1]: no parameters either related to Activin A or TGF-beta-1 that were statistically relevant

Compound: Activin A: Activin A (Peprotech), factor from TGF superfamily
- Self-renew regression Coefficient (Linear) [2]: −0.430
- Self-renew regression Coefficient (Quadratic) [2]: 0.798
- statistical relevance of model parameters for pluripotency [1]: no parameters either related to Activin A or TGF-beta-1 that were statistically relevant

Compound: O=C(O)CC(O)(CC(=O)O)C(=O)O [Citric Acid, citric acid]
- Effect on Integral [3]: 17.09
- Effect on Px, max [3]: 0.0060
- Effect on μ [3]: 0.0065
- Regression coefficient (Linear), Px, max [4, 7]: −0.0020
- Regression coefficient (Quadratic), Px, max [4, 7]: −0.0104
- Regression coefficient (Linear), Integral [4, 8]: 1.63
- Regression coefficient (Quadratic), Integral [4, 8]: −33.83

Compound: O=[Se]([O-])[O-].[Na+].[Na+] [Selenite, sodium selenite]
- Effect on Integral [3]: 7.46
- Effect on Px, max [3]: 0.0029
- Effect on μ [3]: 0.0098

Compound: IGF-1
- Regression coefficient (Linear), Px, max [3]: 0.0121
- Regression coefficient (Quadratic), Px, max [3]: −0.0036
- Regression coefficient (Linear), Integral [3]: 42.99
- Effect on Integral [3]: 97.69
- Effect on Px, max [3]: 0.0292
- Effect on μ [3]: 0.0027
- Regression coefficient (Quadratic), Integral ([4]; 1st RCCD, R^2 = 86.4%): −1.19
- Regression coefficient (Linear), Px, max ([4]; 2nd RCCD, R^2 = 37.9%): 0.0021
- Regression coefficient (Quadratic), Px, max ([4]; 2nd RCCD, R^2 = 37.9%): −0.0011
- Regression coefficient (Linear), Integral ([4]; 2nd RCCD, R^2 = 62.7%): 17.03
- Regression coefficient (Quadratic), Integral ([4]; 2nd RCCD, R^2 = 62.7%): −4.60
- Regression coefficient (Linear), Integral ([4]; 3rd RCCD, R^2 = 65.8%): 0.24
- Regression coefficient (Quadratic), Integral ([4]; 3rd RCCD, R^2 = 65.8%): 7.12
- Regression coefficient (Linear), Px, max ([4]; 3rd RCCD, R^2 = 86.4%): 0.0003
- Regression coefficient (Quadratic), Px, max ([4]; 3rd RCCD, R^2 = 86.4%): 0.0041
- Regression coefficient (Linear), Px, max ([4]; 4th RCCD, R^2 = 69.0%): 0.0028
- Regression coefficient (Quadratic), Px, max ([4]; 4th RCCD, R^2 = 69.0%): 0.0046
- Regression coefficient (Linear), Integral ([4]; 4th RCCD, R^2 = […]): 3.10
- Regression coefficient (Quadratic), Integral ([4]; 4th RCCD, R^2 = […]): 10.30

Compound: OCCS [BME, β-mercaptoethanol]
- effect on ES cell growth [5]: statistically negative effect

Compound: TGF-β-1
- Self-renew regression Coefficient (Linear) [2]: −0.508
- Self-renew regression Coefficient (Quadratic) [2]: 0.936

Compound: NCCO [Etan., ethanolamine]
- Effect on Integral [3]: −0.56
- Effect on Px, max [3]: −0.0055
- Effect on μ [3]: 0.0006

Compound: NC(=O)CC[C@H](N)C(=O)O [Glut, glutamine]
- Effect on Integral [3]: −39.15
- Effect on Px, max [3]: −0.0088
- Effect on μ [3]: 0.0023
- Regression coefficient (Linear), Px, max [4, 7]: −0.0010
- Regression coefficient (Quadratic), Px, max [4, 7]: −0.0050
- Regression coefficient (Linear), Integral [4, 8]: 2.10
- Regression coefficient (Quadratic), Integral [4, 8]: −10.20

Compound: Transf.: CellPrime rTransferrin AF recombinant human transferrin (Millipore)
- Regression coefficient (Linear), Px, max [3]: 0.0107
- Regression coefficient (Quadratic), Px, max [3]: 0.0028
- Regression coefficient (Linear), Integral [3]: 43.29
- Effect on Integral [3]: 65.44
- Effect on Px, max [3]: 0.0189
- Effect on μ [3]: 0.0169
- Regression coefficient (Quadratic), Integral ([4]; 1st RCCD, R^2 = 86.4%): 4.06
- Regression coefficient (Linear), Px, max ([4]; 2nd RCCD, R^2 = 37.9%): 0.0027
- Regression coefficient (Quadratic), Px, max ([4]; 2nd RCCD, R^2 = 37.9%): −0.0014
- Regression coefficient (Linear), Integral ([4]; 2nd RCCD, R^2 = 62.7%): 18.70
- Regression coefficient (Quadratic), Integral ([4]; 2nd RCCD, R^2 = 62.7%): 5.70
- Regression coefficient (Linear), Integral ([4]; 3rd RCCD, R^2 = 65.8%): 4.61
- Regression coefficient (Quadratic), Integral ([4]; 3rd RCCD, R^2 = 65.8%): 3.59
- Regression coefficient (Linear), Px, max ([4]; 3rd RCCD, R^2 = 86.4%): 0.0013
- Regression coefficient (Quadratic), Px, max ([4]; 3rd RCCD, R^2 = 86.4%): 0.0018
- Regression coefficient (Linear), Px, max ([4]; 4th RCCD, R^2 = 69.0%): 0.0021
- Regression coefficient (Quadratic), Px, max ([4]; 4th RCCD, R^2 = 69.0%): −0.0034
- Regression coefficient (Linear), Integral ([4]; 4th RCCD, R^2 = […]): 1.17
- Regression coefficient (Quadratic), Integral ([4]; 4th RCCD, R^2 = […]): −14.34

Compound: O=C([O-])O.[Na+] [bicarbonate, sodium bicarbonate]
- cell growth with KSR formulation [6]: perform better
